Patent US20100037351A1, “Alteration of Phospholipase De (PLDe) or Phospholipase Da3 (PLD a3) Expression in Plants” (DONALD DANFORTH PLANT SCIENCE CENTER, priority 2008, published 2010)

Key:
[1] = system: S6K; test: S6K binding to lipids immobilized on a nitrocellulose filter; parameters: species or system Arabidopsis; settings: 10 mg lipid spotted; leaf proteins 1.2 mg/ml; anti-human p70 S6K antibody
Experimental: FIG. 5 depicts S6K levels under different N levels. (A) and (B) S6K protein levels detected by immunoblotting with anti-p70 S6K and anti-phospho-p70 S6K (Thr389) antibodies, respectively. Four-day-old seedlings were transferred to MS plates with the indicated N levels for 10 days. The same amount of proteins ([…]/lane) was separated by 10% SDS-PAGE and transferred to a nitrocellulose membrane. (C) S6K binding to PA immobilized on filter. Lipid (10 mg) was spotted on nitrocellulose filter, and incubated with leaf proteins (1.2 mg/ml), followed by blotting with anti-human p70 S6K antibody. (D) S6K binding to liposomes composed of PA (PA:PC=1:2), PC, or PI only (650 nmol of total lipids). (E) Total S6K, but not phosphorylated S6K binding to PA:PC liposomes. Proteins were extracted from WT and PLDε-altered seedlings. Bound proteins were separated by SDS-PAGE and detected by blotting with anti-human p70 S6K antibody or anti-human p389 p70 S6K antibody.
PLDε: PA-Protein Binding by Blotting and Liposomal Assays. S6K binding to lipids immobilized on a nitrocellulose filter was performed as described (Zhang, W., Qin, C., Zhao, J. & Wang, X. (2004) Proc. Natl. Acad. Sci. USA. 101, 9508-9513; Stevenson, J. M., Perera, I. Y. & Boss, W. F. (1998) J Biol Chem. 273, 22761-22767) with minor modifications. […] Protein binding to liposome was detected by immunoblotting as described above.

[2] = system: Arabidopsis seedlings; settings: for effect on number and length of lateral roots: MS with 6 mM N containing 0.15% butanol, OE, WT and KO seedlings, measured 6 days after transfer
Experimental: (A) Four-day-old seedlings were transferred to Murashige and Skoog (MS) containing 6 mM N for 12 days. […] Root length and number were measured 6 days after transfer. Values are means±SD (n=30).
To test N response on plates, surface-sterilized seeds were germinated in MS (1×) agar plates supplement with 3% sucrose for 4 days and then were transferred to modified MS agar plates containing 0.1, 0.6, 2, 6, 60 mM N, NO3^−:NH4^−=2:1). […] Seedlings were grown on plates in a vertical orientation in a growth chamber under the conditions of 16-h light/8-h dark, 23/21° C., cool fluorescent white light (200 mmol m^−2 s^−1). Alternatively, seeds were also directly germinated in agar plates with the same conditions as described above.

Row | Molecule | S6K binding to lipid immobilized on filter [1] | effect on biomass accumulation ([2]; 1-butanol treatment, data not shown) | effect on number and length of lateral roots [2]
1 | phosphatidic acid [PA] | bound | – | –
2 | CCCCO [1-Butanol, 1-butanol] | – | inhibited | inhibited
3 | CCC(C)O (stereo not shown) [2-butanol] | – | – | no growth inhibitory effect
